Like-named read-outs stand apart in the source and are kept apart here.
Tests used:
[1] = system: Streptococcus sobrinus 6715-14; settings: 1.5% pyrophosphate anion; versus deionized water control
Method: A Microbial Mineralization Assay was carried out. Standard glass rods (3mm x 50mm) were attached to a circular piece of rubber and attached to a vial cap. The surface of the rods was etched. The rods were placed in a growth medium containing sucrose and Streptococcus sobrinus 6715-14. The microbe was grown on the rods for 24 hours at 37°C. The rods were then placed into a fresh growth medium for another 24 hours at 37°C. The rods were then taken out and treated with the anti-tartar agent to be tested. Treatment with only deionized water was used as control. The rods were then placed in a calcifying solution made up of a calcium and phosphate at levels of 1.5 mM and 5.0 mM respectively, at pH 7.4, supplemented with human saliva (about 25%). Six hours later, the treatment with the anti-tartar agent was repeated, and glass rods were placed in a calcifying solution. The procedure was continued for the next three days.
The rods were then removed from the calcifying solution, rinsed with water and placed in 0.6 N HCl solution. The solution containing the rods was heated at 60°C for 2 hours to dissolve calcified salts. The resulting acidic solution was filtered over 0.8 µm nylon membrane. The level of mineral formation was assessed via calcium and phosphorus analysis. The results were calculated by comparing the % reduction of mineral formation to that of the control.

[2] = no Na CPP
Method: Comparative in vitro experiments were carried out using a Seeded Crystal Growth Inhibition Assay. This assay involved the treatment of synthetic hydroxyapatite with the anti-tartar agent to be tested. The hydroxyapatite, treated with the anti-tartar agent was incubated at 37°C in a calcifying solution made up of calcium and phosphate at 1.5 mM and 4.5 mM respectively, pH 7.4. The samples were filtered to remove any calcium phosphate crystals and the free calcium in the filtrate was measured using Atomic Absorption Spectroscopy. The percent inhibition was calculated as follows: [formula]
The % inhibition is a measure of the degree of inhibition of calcium phosphate precipitation by the anti-tartar agent. The anti-tartar agents tested were: 1) tetrasodium pyrophosphate, Na₄P₂O₇ and 2) combinations of Na₄P₂O₇ and sodium caseinphosphopeptide, Na CPP, prepared as described above, which is a mixture rich in phosphopeptides of SEQ ID NO:1 and SEQ ID NO:2.
Experiments were carried out using a Seeded Crystal Growth Inhibition Assay described in Example 1. % inhibition was measured for NaCPP/Zinc sulphate mixtures.

| SMILES | % reduction of mineral formation [1] | % Inhibition ([2]; Na4 P2 O7 0.1 mM) | % Inhibition ([2]; Na4 P2 O7 0.15 mM) | % Inhibition ([2]; Na4 P2 O7 0.2 mM) |
| --- | --- | --- | --- | --- |
| O=P(O)(O)OP(=O)(O)O [pyrophosphate anion] | 32% | – | – | – |
| O=P([O-])([O-])OP(=O)([O-])[O-].[Na+].[Na+].[Na+].[Na+] [Na4 P2 O7, tetrasodium pyrophosphate] | – | 14% | 24% | 54% |
